This series can be described thus: Particle size distribution by laser diffraction (Malvern Mastersizer 3000, wet dispersion). It counts as physicochemical. The settings on record: wet dispersion in Isopar G, average of three consecutive measurements. As to the method:
Particle size distribution was analyzed using laser diffraction. The apparatus used was a Malvern Mastersizer 3000 equipped with a Hydro 3000S cell for wet dispersion measurements. The measuring range was 0.01-3500 μm, the dispersant used was Isopar G (dispersant RI 1.42). The scattering model used was Mie (material RI 1.50, AI 0.10). The cell was cleaned, filled with dispersant, aligned and the background measured (30 sec. for red light, 10 seconds for blue light). The pump speed was set at 2800 rpm. About 100 mg of the sample were dispersed in 0.5 ml of 2% w/w soy lecithin solution in isopar G, stirred gently with a glass rod and brought to 10 ml with isopar G. The suspension was sonicated for about a minute, then added dropwise to the measurement cell until an obscuration of 10-20% was obtained. The sample was then measured for 20 seconds with red light and 10 seconds with blue light. The results given, expressed in Dv(10), Dv(50) and Dv(90) are the average of three consecutive measurements (Table 3).

Results on two compounds are retold here after patent US12180137B1, “Solid forms of enantiopure deuterium-enriched bupropion and methods of use thereof” (DeuteRx, LLC, priority 2024, dated 2024).

Structures can show the parent of a compound that is named as a salt.

In the case of `CC(NC(C)(C)C)C(=O)c1cccc(Cl)c1` (racemic) [Bupropion HCl], the “Particle size distribution Dv(10)” value is listed as 4.9 μm, the “Particle size distribution Dv(50)” value came to 64 μm and the “Particle size distribution Dv(90)” value stood at 208 μm.
`[2H]N(C(C)(C)C)[C@@]([2H])(C)C(=O)c1cccc(Cl)c1` [Compound 101]: the “Particle size distribution Dv(10)” value came out at 7.1 μm, the “Particle size distribution Dv(50)” value came out at 31 μm and the “Particle size distribution Dv(90)” value amounted to 179 μm.
